Calls of active or inactive are those of the source.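 Rule for the calls: active = phosphorylated p38 level fell or rose by at least 30% against DMSO-treated cells; inactive = change under 30% either way.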
Molecular target: Mitogen-activated protein kinase 14 (Homo sapiens) (UniProt Q16539)
Assay: phosphorylated p38 MAPK abundance shift – cell-based, HCT116 colorectal carcinoma, chemiluminescent western blot, counter-screen for KLF5 inhibitor project, late-stage follow-up (AID 588646)
Conditions: HCT116 phospho-p38 western blot, 24 h, at 10 µM; for inhibition: measured here: phospho-p38 inhibition percent

Sequence of Mitogen-activated protein kinase 14 (Homo sapiens) (Q16539 whole entry, looked up): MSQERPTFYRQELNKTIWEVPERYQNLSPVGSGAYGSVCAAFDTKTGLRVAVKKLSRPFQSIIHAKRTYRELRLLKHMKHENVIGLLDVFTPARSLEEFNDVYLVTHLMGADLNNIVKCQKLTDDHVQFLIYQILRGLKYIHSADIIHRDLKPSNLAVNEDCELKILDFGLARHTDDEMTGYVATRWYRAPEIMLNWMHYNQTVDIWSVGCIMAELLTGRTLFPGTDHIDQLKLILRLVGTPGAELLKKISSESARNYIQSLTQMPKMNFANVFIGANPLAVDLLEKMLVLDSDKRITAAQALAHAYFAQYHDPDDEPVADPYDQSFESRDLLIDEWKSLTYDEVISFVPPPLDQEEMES

Row | fold change | inhibition [%] | SMILES
1 | 2.03 | -103 | CN(C(=O)COC(=O)/C=C/c1cccc([N+](=O)[O-])c1)C1CCS(=O)(=O)C1 (stereo not given)
2 | 7.64 |  | CN(C(=O)CNC(=O)/C=C/c1cccc(Cl)c1)C1CCS(=O)(=O)CC1
3 | -1.14 (inactive) | 11.9 | CN(C(=O)CNC(=O)/C=C/c1cccc(Cl)c1)C1CCS(=O)(=O)C1 (stereo not given)

— PubChem BioAssay AID588646 (The Scripps Research Institute Molecular Screening Center, 2011)
